From article PMC7728077, “Double-Headed Cationic Lipopeptides: An Emerging Class of Antimicrobials” (International Journal of Molecular Sciences, 2020)
Converted amounts (≈) assume the structure as drawn. Square brackets hold non-standard residues; d marks the D form. Peptide text beside a SMILES is read from it. * marks the point of attachment. Palmitoyl = CCCCCCCCCCCCCCCC(=O)*; Orn = NCCC[C@H](N)C(=O)O; Dab = NCC[C@H](N)C(=O)O; Dap = NC[C@H](N)C(=O)O

How the values were obtained:
[1] = system: 46BR.1N human skin fibroblasts cell line; assay type: cell-based
Description: (§1) Cytotoxicity was determined towards immortalized human HaCaT keratinocytes (DKFZ, Heidelberg, Germany), transformed human fibroblast cell line 46BR.1N (ECACC), as well as the human melanoma (A375), human lung cancer (A549), human colon cancer (HCT-116), human colon adenocarcinoma (HT-29), and human prostate cancer (LNCaP) cell lines. Keratinocytes and fibroblast cell lines were maintained in a humidified atmosphere with 5% CO2 at 37 °C in a Dulbecco’s modified Eagle’s medium (DMEM) (Sigma-Aldrich, Steinheim, Germany), which contained 4500 mg/L of glucose, 584 mg/L of L-glutamine, sodium pyruvate, and sodium bicarbonate. Additionally, the medium was supplemented with 10% of fetal bovine serum (FBS) (Sigma-Aldrich, Steinheim, Germany), 100 U/mL of penicillin, and 100 µg/mL of streptomycin (Sigma-Aldrich, Steinheim, Germany). The cells were grown in culture dishes (BD, Franklin Lakes, NJ, USA) and the medium was changed every 2 days. Afterwards, the fibroblasts and keratinocytes were harvested using a standard trypsin-EDTA solution, centrifuged, suspended in a medium supplemented with 10% FBS and seeded at a density of 5500–6000 cells per well into 96-well plates. After 24 h, the medium was exchanged with a serum- and antibiotic-free DMEM. The next day, serially diluted solutions of the lipopeptides prepared in a fresh FBS- and antibiotic-free medium were added to the wells. The potential cytotoxic effect of the compounds was analyzed over the concentration range of 1–25 µg/mL. After addition of the lipopeptides, cells were incubated for the next 24 h. At the end of the experiment, the cells were treated with 20 µL of MTT (5 mg/mL in PBS). After 3 h at 37 °C under 5% CO2, the medium was discarded and replaced by 6 mM HCl in isopropanol. As soon as the purple crystals of formazan were completely solubilized, absorbance was read at 570 nm with a plate reader. The optical density of the wells without the tested compounds were regarded as the positive control. The MTT assay was performed in triplicate for each cell line.
(§2) Determination of the half-maximum inhibitory concentrations (IC50) was done using GraphPad Prism 5 software (San Diego, CA, USA) based on the dose-response curves. The logarithm of the different concentrations of compounds was plotted against the percentage of inhibition in cell viability as compared with control probes, treated as 100%.

[2] = system: HaCaT human keratinocyte cell line; assay type: cell-based
Description: as §1, §2

[3] = system: MCF-7 breast cancer cell line; assay type: cell-based, human
[4] = system: Staphylococcus epidermidis ATCC 1922; assay type: cell-based; details: ATCC 1922, 18 h
Description: (§3) Fmoc-Lys(Boc)-OH and the coupling reagents were purchased from GL Biochem (Shanghai, China). Palmitoyl Fmoc-amino acids: Fmoc-Lys(C16)-OH, Fmoc-Orn(C16)-OH, Fmoc-Dab(C16)-OH, and Fmoc-Dap(C16)-OH were acquired from Iris Biotech GmbH (Marktredwitz, Germany). The resin and solvents were purchases from Rapp Polymere (Tübingen, Germany), Merck (Darmstadt, Germany), and Avantor Performance Materials (Gliwice, Poland), respectively. The phospholipids, 1,2-dipalmitoyl-sn-glycero-3-phosphocholine (DPPC), 1,2-dipalmitoyl-sn-glycero-3-[phospho-rac-(1-glycerol)] (DPPG), 1-palmitoyl-2-oleoyl-glycero-3-phosphocholine (POPC) and 1-palmitoyl-2-oleoyl-sn-glycero-3-[phospho-rac-(1-glycerol)] (POPG), were purchased from Avanti Polar Lipids (Alabaster, AL, USA). LPS E. coli 055:B5 and phosphate buffered saline (PBS) were from Sigma-Aldrich (Steinheim, Germany). The Mueller Hinton broth was bought from BIOCORP (Warsaw, Poland) and the RPMI-1640 medium from Sigma-Aldrich (Steinheim, Germany). LIVE/DEAD™ BacLight™ Bacterial Viability Kit was obtained from Thermo Fisher Scientific (Waltham, MA, USA). Bacterial strains (Escherichia coli ATCC 25922, Pseudomonas aeruginosa ATCC 9027, Staphylococcus aureus ATCC 25923, Staphylococcus epidermidis ATCC 1922) and the fungal strain (Candida albicans ATCC 10231) were obtained from the Polish Collection of Microorganisms, Polish Academy of Science, Institute of Immunology and Experimental Therapy, Wroclaw, Poland.
(§4) Antimicrobial activity of the lipopeptides was determined according to the broth microdilution guidelines recommended by the Clinical and Laboratory Standards Institute (CLSI). Minimum inhibitory concentrations (MICs) were assumed as the lowest concentration of the peptide solution, at which the visible growth of microorganisms was inhibited. MIC values of lipopeptides against bacteria were evaluated in the Mueller–Hinton broth and against fungus in the RPMI-1640 medium. Initial inoculums of bacteria and fungus (with concentrations of 5 × 10^5 CFU/mL and 2 × 10^3 CFU/mL, respectively) were exposed to increasing concentrations of lipopeptides solutions over the range of 1–512 µg/mL. […] The 96-well plates filled with appropriate inoculums and the tested compounds were incubated for 18 h at 37 °C. Presented values are the mean of the results obtained in three independent experiments.

[5] = system: Candida albicans ATCC 10231; assay type: cell-based; details: ATCC 10231, 18 h
Description: as §3, §4

[6] = system: Pseudomonas aeruginosa ATCC 9027; assay type: cell-based; details: ATCC 9027, 18 h
Description: as §3, §4

[7] = system: Staphylococcus aureus ATCC 25923; assay type: cell-based; details: ATCC 25923, 18 h
Description: as §3, §4

[8] = system: Escherichia coli ATCC 25922; assay type: cell-based; details: ATCC 25922, 18 h
Description: as §3, §4

[9] = system: A549 human epithelial lung carcinoma; assay type: cell-based
Description: (§5) In the case of evaluation of cytotoxicity towards different types of the cancer cell lines (A375, A549, HCT-116, HT-29, and LNCaP, respective cells were seeded in 96-well plates (4500 cell/well) in the RPMI-1640 medium supplemented with 5% FBS without antibiotics and incubated for 24 h before stimulation with the lipopeptides. The next day, the cells were exposed to the effect of the serially diluted compounds added at concentrations ranging from 1 to 25 µg/mL for a period of 48 h. After the treatment, cells viability was evaluated by means of MTT assays, according to standard protocol, as just described. The experiment was repeated three times for each cell line.
as §2

[10] = system: LNCaP human prostate carcinoma; assay type: cell-based
Description: as §5, §2

[11] = system: HCT-116 human colorectal carcinoma; assay type: cell-based
Description: as §5, §2

[12] = system: HT-29 human colorectal adenocarcinoma; assay type: cell-based
Description: as §5, §2

[13] = system: A375 human malignant melanoma cell line; assay type: cell-based
Description: as §5, §2

[14] = Analytical RP-HPLC retention time as measure of hydrophobicity; assay type: physicochemical; details: Jupiter 4 µ Proteo 90 Å 250 x 4.60 mm, linear gradient 15-90% B in A in 30 min, 1 ml/min, A 0.1% aqueous TFA, B 80% acetonitrile in water with 0.1% TFA
Description: The lipopeptides were purified in a Waters RP-HPLC preparative system (Jupiter 4 µ Proteo column, 90 Å, 250 × 10 mm) with the linear gradient of solution B in A from 30% to 60% (A, 0.1% solution of TFA in water and B, 80% solution of ACN in water containing 0.1% of TFA) in 40 min with a flow rate of 5 mL/min. Final purity of the analogues (at least 97%) was determined using an analytical RP-HPLC Shimadzu system (Jupiter 4 µ Proteo column, 90 Å, 250 × 4.60 mm) with the linear gradient of solution B in A from 15% to 90% in 30 min with a flow rate of 1 mL/min. Identity of lipopeptides was confirmed by MALDI-TOF mass spectrometry. Analytical data of the synthesized analogues are presented in Table S1 (Supplementary Materials). ^a linear gradient 15-90% of B in A for 30 min, flow rate 1 ml/min, RP-HPLC Shimadzu system, column: Jupiter 4 µ Proteo, 90 Å, 250 x 4.60 mm; A – 0.1% aqueous TFA solution, B – 80% solution of acetonitrile in water with 0.1% of TFA; ^b molecular masses were determined using MALDI-TOF mass spectrometer.

[15] = literature value used for comparison; cited from earlier work
Description: As expected, the critical aggregation concentration (CAC) values increased in the homologue series, i.e., Lys, Orn, Dab, and Dap, with a linear relationship of log CAC vs. number of methylene groups in the side chain of palmitoylated residue (Figure S3, Supplementary Materials). […] The modification of the acyl chain position separated the posi ...

| Compound | IC50, 46BR.1N (24h) [1] [µg/mL] | IC50, HaCaT (24h) [2] [µg/mL] | IC50, MCF-7 (48h) [3] [µg/mL] | MIC, S. epidermidis [4] [µg/mL] | MIC, C. albicans [5] [µg/mL] | MIC, P. aeruginosa [6] [µg/mL] | MIC, S. aureus [7] [µg/mL] | MIC, E. coli [8] [µg/mL] | IC50, A549 (48h) [9] [µg/mL] | IC50, LNCaP (48h) [10] [µg/mL] | IC50, HCT-116 (48h) [11] [µg/mL] | IC50, HT-29 (48h) [12] [µg/mL] | IC50, A375 (48h) [13] [µg/mL] | Retention time (used as measure of hydrophobicity) [14] [min] | CAC of N-terminally palmitoylated peptide [15] [mM] |
| --- | --- | --- | --- | --- | --- | --- | --- | --- | --- | --- | --- | --- | --- | --- | --- |
| CCCCCCCCCCCCCCCC(=O)NC[C@H](NC(=O)[C@@H](N)CCCCN)C(=O)N[C@@H](CCCCN)C(N)=O [K(DapC16)K-NH2] (H-Lys-[Dap](Palmitoyl)-Lys-NH2) | 8.68 ± 1.00 (≈ 14.5 µM) | 7.25 ± 2.18 (≈ 12.1 µM) | 20.11 ± 2.51 (≈ 33.6 µM) | 4 (≈ 6.69 µM) | 16 (≈ 26.8 µM) | 8 (≈ 13.4 µM) | 8 (≈ 13.4 µM) | 8 (≈ 13.4 µM) | >25 | 14.0 ± 0.41 (≈ 23.4 µM) | 14.90 ± 0.30 (≈ 24.9 µM) | 20.24 ± 0.81 (≈ 33.9 µM) | 11.63 ± 0.26 (≈ 19.5 µM) | – | – |
| CCCCCCCCCCCCCCCC(=O)NCC[C@H](NC(=O)[C@H](CCCCN)NC(=O)[C@@H](N)CCCCN)C(=O)N[C@@H](CCCCN)C(=O)N[C@@H](CCCCN)C(N)=O [KK(DabC16)KK-NH2] (H-KK[Dab](Palmitoyl)KK-NH2) | 9.45 ± 2.13 (≈ 10.9 µM) | 16.95 ± 1.43 (≈ 19.5 µM) | >25 | 8 (≈ 9.21 µM) | 32 (≈ 36.9 µM) | 32 (≈ 36.9 µM) | 4 (≈ 4.61 µM) | 8 (≈ 9.21 µM) | >25 | >25 | 16.74 ± 0.33 (≈ 19.3 µM) | 20.75 ± 0.42 (≈ 23.9 µM) | >25 | – | – |
| CCCCCCCCCCCCCCCC(=O)NC[C@H](NC(=O)[C@H](CCCCN)NC(=O)[C@@H](N)CCCCN)C(=O)N[C@@H](CCCCN)C(=O)N[C@@H](CCCCN)C(N)=O [KK(DapC16)KK-NH2] (H-KK[Dap](Palmitoyl)KK-NH2) | 12.77 ± 1.32 (≈ 14.9 µM) | – | >25 | 8 (≈ 9.37 µM) | 256 (≈ 300 µM) | 32 (≈ 37.5 µM) | 4 (≈ 4.68 µM) | 8 (≈ 9.37 µM) | >25 | >25 | 23.05 ± 0.92 (≈ 27 µM) | 24.68 ± 0.49 (≈ 28.9 µM) | >25 | – | – |
| CCCCCCCCCCCCCCCC(=O)NCCC[C@H](NC(=O)[C@H](CCCCN)NC(=O)[C@@H](N)CCCCN)C(=O)N[C@@H](CCCCN)C(=O)N[C@@H](CCCCN)C(N)=O [KK(OC16)KK-NH2] (H-KK[Orn](Palmitoyl)KK-NH2) | 8.21 ± 1.12 (≈ 9.31 µM) | 16.65 ± 2.29 (≈ 18.9 µM) | >25 | 4 (≈ 4.53 µM) | 32 (≈ 36.3 µM) | 32 (≈ 36.3 µM) | 8 (≈ 9.07 µM) | 8 (≈ 9.07 µM) | >25 | >25 | 14.90 ± 0.75 (≈ 16.9 µM) | 19.36 ± 0.58 (≈ 21.9 µM) | >25 | 21.328 | – |
| C16-KKK-NH2 [Peptide C16-KKK-NH2] | – | – | – | – | – | – | – | – | – | – | – | – | – | – | 4.8 |
